Source: patent publication US20230265151A1, “GIP/GLP1 CO-AGONIST COMPOUNDS” (priority 2020, published 2023)
Read-outs that look alike come from different tables or passages of the source. *1 amine or outer side, *2 acyl side, *3 side chain or, on linkers, in order; H or OH if unused. Where a SMILES comes first, the peptide text is derived from it. Side-chain parts run from the residue outwards. [ ]: non-standard residue; d: D form. The star is where a group is joined. αMePhe(2-F) = C[C@](N)(Cc1ccccc1F)C(=O)O; γGlu = O=C(O)[C@H](CCC(=O)[*:2])N[*:1]; C14 diacid = O=C(O)CCCCCCCCCCCCC(=O)*; αMeY = C[C@](N)(Cc1ccc(O)cc1)C(=O)O; αMeL = CC(C)C[C@](C)(N)C(=O)O; Orn = NCCC[C@H](N)C(=O)O; AEEA = NCCOCCOCC(=O)O; Aib = CC(C)(N)C(=O)O

Columns and labels:
Format in all cases: cell-based
hGCGR = biological target: T1, hGCGR (Homo sapiens, UniProt P47871); test: Functional cAMP formation (HTRF) in HEK-293 clonal cells expressing hGCGR, 0.1% bovine casein, without or with 1.0% human serum albumin
T1 construct: expressed in transfected cells
Method in brief: (§1)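 Cells were stimulated with peptide for 30 min at 37° C, then intracellular cAMP was measured by competitive HTRF (665/620 nm ratio) and converted to nM using a cAMP standard curve. Relative EC50 and Emax came from four-parameter logistic fits of percent maximal response against peptide concentration.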

hGIPR = biological target: T2, hGIPR (Homo sapiens, UniProt P48546); test: Functional cAMP formation (HTRF) in HEK-293 clonal cells expressing hGIPR, 0.1% bovine casein, without or with 1.0% human serum albumin; conditions: for EC50: geometric mean
T2 construct: expressed in transfected cells
T2 sequence (P48546 22-466): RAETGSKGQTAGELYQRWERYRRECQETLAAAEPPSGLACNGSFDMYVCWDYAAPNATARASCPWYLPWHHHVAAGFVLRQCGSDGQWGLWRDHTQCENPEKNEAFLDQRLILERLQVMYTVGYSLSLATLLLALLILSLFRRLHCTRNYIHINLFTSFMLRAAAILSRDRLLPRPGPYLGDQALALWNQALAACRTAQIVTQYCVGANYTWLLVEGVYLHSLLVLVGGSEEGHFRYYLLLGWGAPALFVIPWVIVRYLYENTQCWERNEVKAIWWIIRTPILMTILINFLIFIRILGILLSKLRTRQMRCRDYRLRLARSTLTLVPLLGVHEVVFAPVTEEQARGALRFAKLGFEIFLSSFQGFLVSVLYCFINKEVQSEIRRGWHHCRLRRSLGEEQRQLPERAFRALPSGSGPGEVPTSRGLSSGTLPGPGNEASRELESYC
Method in brief: as §1

hGLP-1R = hGLP-1R (Homo sapiens, UniProt P43220); test: Functional cAMP formation (HTRF) in HEK-293 clonal cells expressing hGLP-1R, 0.1% bovine casein, without or with 1.0% human serum albumin; design: expressed in transfected cells; conditions: for EC50: cAMP; for Emax: percent of maximal response to GLP-1(7-36)NH2
Method in brief: as §1

[1] = 0.1% bovine casein and 1.0% human serum albumin, 37° C., geometric mean, read-out: hGCGR EC50, nM (SEM, n)
[2] = 0.1% bovine casein and 1.0% human serum albumin, 37° C., read-out: hGIPR EC50, nM (SEM, n)
[3] = HEK293, 0.1% bovine casein and 1.0% human serum albumin, 37° C., percent of maximal response to GIP(1-42)NH2, read-out: hGIPR Emax, % ± SEM
[4] = cAMP, 37° C., 0.1% bovine casein (no human serum albumin), geometric mean, read-out: hGCGR EC50, nM (SEM, n)
[5] = cAMP, 37° C., 0.1% bovine casein (no human serum albumin), read-out: hGIPR EC50, nM (SEM, n)
[6] = 37° C., 0.1% bovine casein (no human serum albumin), geometric mean, read-out: hGLP-1R EC50, nM (SEM, n)

T1 sequence (P47871 26-477): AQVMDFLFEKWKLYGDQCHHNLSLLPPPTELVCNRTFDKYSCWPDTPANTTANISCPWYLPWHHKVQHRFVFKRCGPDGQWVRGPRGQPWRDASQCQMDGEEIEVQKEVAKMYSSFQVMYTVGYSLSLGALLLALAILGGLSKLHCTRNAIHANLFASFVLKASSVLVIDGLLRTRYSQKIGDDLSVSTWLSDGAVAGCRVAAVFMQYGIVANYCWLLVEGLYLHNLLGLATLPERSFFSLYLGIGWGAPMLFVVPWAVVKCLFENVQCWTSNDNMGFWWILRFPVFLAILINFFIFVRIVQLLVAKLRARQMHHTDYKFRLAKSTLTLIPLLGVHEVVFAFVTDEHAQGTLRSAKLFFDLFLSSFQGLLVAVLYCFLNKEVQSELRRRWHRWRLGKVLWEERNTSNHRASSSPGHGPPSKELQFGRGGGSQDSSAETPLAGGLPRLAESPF
Chain of hGLP-1R (P43220 24-463): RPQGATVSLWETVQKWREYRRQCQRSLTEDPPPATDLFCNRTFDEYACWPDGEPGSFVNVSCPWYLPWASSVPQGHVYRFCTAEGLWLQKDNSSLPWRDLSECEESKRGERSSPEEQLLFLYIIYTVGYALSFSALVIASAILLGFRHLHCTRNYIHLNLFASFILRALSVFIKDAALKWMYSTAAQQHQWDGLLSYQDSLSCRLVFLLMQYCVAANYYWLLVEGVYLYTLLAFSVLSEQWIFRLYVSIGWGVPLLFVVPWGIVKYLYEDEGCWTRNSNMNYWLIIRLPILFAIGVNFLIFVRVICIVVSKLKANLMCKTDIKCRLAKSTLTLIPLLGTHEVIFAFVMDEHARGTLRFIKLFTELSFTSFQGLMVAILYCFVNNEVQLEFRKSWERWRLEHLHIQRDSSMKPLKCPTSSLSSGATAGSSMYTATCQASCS

SMILES: CC[C@H](C)[C@H](NC(=O)[C@H](CC(C)C)NC(=O)[C@](C)(Cc1ccc(O)cc1)NC(=O)[C@@H](CCC(=O)O)NC(=O)[C@@H](NC(=O)[C@H](Cc1ccccc1)NC(=O)[C@H](CCC(=O)O)NC(=O)C(C)(C)NC(=O)[C@H](CCC(N)=O)NC(=O)[C@H](C)NC(=O)[C@H](CCCCNC(=O)COCCOCCNC(=O)COCCOCCNC(=O)CC[C@H](NC(=O)CCCCCCCCCCCCC(=O)O)C(=O)O)NC(=O)[C@H](CCCN)NC(=O)[C@H](CC(=O)O)NC(=O)[C@H](CC(C)C)NC(=O)[C@](C)(CC(C)C)NC(=O)[C@@H](NC(=O)[C@H](CO)NC(=O)[C@H](Cc1ccc(OC)cc1)NC(=O)[C@H](CC(=O)O)NC(=O)[C@H](CO)NC(=O)[C@@H](NC(=O)[C@](C)(Cc1ccccc1F)NC(=O)[C@@H](NC(=O)CNC(=O)[C@H](CCC(=O)O)NC(=O)C(C)(C)NC(=O)[C@@H](N)Cc1ccc(O)cc1)[C@@H](C)O)[C@@H](C)O)[C@@H](C)CC)[C@@H](C)CC)C(=O)N[C@@H](CCC(=O)O)C(=O)NCC(=O)NCC(=O)N[C@@H](CCCCNC(=O)COCCOCCNC(=O)COCCOCCNC(=O)CC[C@H](NC(=O)CCCCCCCCCCCCC(=O)O)C(=O)O)C(=O)N[C@@H](CO)C(=O)N[C@@H](CO)C(=O)NCC(=O)N[C@@H](C)C(=O)N1CCC[C@H]1C(=O)N1CCC[C@H]1C(=O)N1CCC[C@H]1C(=O)N[C@@H](CO)C(N)=O [Example 58] (H-Y[Aib]EGT[αMePhe(2-F)]TSDY(Me)SI[αMeL]LD[Orn]K([AEEA-AEEA-γGlu-C14 diacid])AQ[Aib]EFI[dE][αMeY]LIEGGK([AEEA-AEEA-γGlu-C14 diacid])SSGAPPPS-NH2)
- EC50 (hGCGR; [1]): > 9950 nM
- EC50 (hGCGR; cAMP, incubated at 37° C., 0.1% bovine casein (no human serum albumin), geometric mean, read-out: hGCGR EC50, nM (SEM, n)): > 9950 nM
- EC50 (hGIPR; [2]): 1.12 nM
- Emax (hGIPR; [3]): 92.2 ± 7.4%
- Emax (hGIPR; HEK293, percent of maximal response to GIP(1-42)NH2, 37° C., 0.1% bovine casein, arithmetic mean, read-out: hGIPR Emax, % ± SEM): 89.2 ± 5.96%
- EC50 (hGIPR; cAMP, incubated at 37° C., 0.1% bovine casein (no human serum albumin), read-out: hGIPR EC50, nM (SEM, n)): 0.0158 nM
- EC50 (hGLP-1R; incubated at 37° C., 0.1% bovine casein (no human serum albumin), geometric mean, read-out: hGLP-1R EC50, nM (SEM, n)): 0.194 nM

SMILES: CC[C@H](C)[C@H](NC(=O)[C@H](CC(C)C)NC(=O)[C@](C)(Cc1ccc(O)cc1)NC(=O)[C@@H](CCC(=O)O)NC(=O)[C@@H](NC(=O)[C@H](Cc1ccccc1)NC(=O)[C@H](CCC(=O)O)NC(=O)C(C)(C)NC(=O)[C@H](CCC(N)=O)NC(=O)[C@H](C)NC(=O)[C@H](CCCCNC(=O)COCCOCCNC(=O)COCCOCCNC(=O)CCCCCCCCCOc1ccc(C(=O)O)cc1)NC(=O)[C@H](CCCN)NC(=O)[C@H](CC(=O)O)NC(=O)[C@H](CC(C)C)NC(=O)[C@](C)(CC(C)C)NC(=O)[C@@H](NC(=O)C(C)(C)NC(=O)[C@@H](NC(=O)[C@H](CC(=O)O)NC(=O)[C@H](CO)NC(=O)[C@@H](NC(=O)[C@](C)(Cc1ccccc1F)NC(=O)[C@@H](NC(=O)CNC(=O)[C@H](CCC(=O)O)NC(=O)C(C)(C)NC(=O)[C@@H](N)Cc1ccc(O)cc1)[C@@H](C)O)[C@@H](C)O)C(C)C)[C@@H](C)CC)[C@@H](C)CC)C(=O)N[C@@H](CCCCNC(=O)COCCOCCNC(=O)COCCOCCNC(=O)CCCCCCCCCOc1ccc(C(=O)O)cc1)C(=O)NCC(=O)NCC(=O)N1CCC[C@H]1C(=O)N[C@@H](CO)C(=O)N[C@@H](CO)C(=O)NCC(=O)N[C@@H](C)C(=O)N1CCC[C@H]1C(=O)N1CCC[C@H]1C(=O)N1CCC[C@H]1C(=O)N[C@@H](CO)C(N)=O [Example 397]
- EC50 (hGCGR; hGCGR EC50, nM (SEM, n), cAMP, 37° C., 0.1% bovine casein (no human serum albumin), geometric mean): > 9950 nM
- EC50 (hGCGR; hGCGR EC50, nM (SEM, n), cAMP, 37° C., 0.1% bovine casein and 1.0% human serum albumin, geometric mean (SEM, n)): > 9950 nM
- Emax (hGIPR; HEK293, read-out: hGIPR Emax, % ± SEM, cAMP, 37° C., 0.1% bovine casein and 1.0% human serum albumin, percent of maximal response to GIP(1-42)NH2): 84.5%
- Emax (hGIPR; HEK293, read-out: hGIPR Emax, % ± SEM, cAMP, 37° C., 0.1% bovine casein, percent of maximal response to GIP(1-42)NH2, arithmetic mean): 94.6%
- EC50 (hGIPR; hGIPR EC50, nM (SEM, n), cAMP, 37° C., 0.1% bovine casein (no human serum albumin)): 0.0293 nM
- Emax (hGLP-1R; HEK293, read-out: hGLP-1R Emax, % ± SEM, cAMP, 37° C., 0.1% bovine casein, arithmetic mean): 95.8%
- EC50 (hGLP-1R; hGLP-1R EC50, nM (SEM, n), 37° C., 0.1% bovine casein (no human serum albumin), geometric mean): 0.166 nM

SMILES: CC[C@H](C)[C@H](NC(=O)[C@H](CCCN)NC(=O)[C@H](CC(=O)O)NC(=O)[C@H](CC(C)C)NC(=O)[C@](C)(CC(C)C)NC(=O)[C@@H](NC(=O)C(C)(C)NC(=O)[C@@H](NC(=O)[C@H](CC(=O)O)NC(=O)[C@H](CO)NC(=O)[C@@H](NC(=O)[C@](C)(Cc1ccccc1F)NC(=O)[C@@H](NC(=O)CNC(=O)[C@H](CCC(=O)O)NC(=O)C(C)(C)NC(=O)[C@@H](N)Cc1ccc(O)cc1)[C@@H](C)O)[C@@H](C)O)C(C)C)[C@@H](C)CC)C(=O)N[C@@H](C)C(=O)N[C@@H](CCC(N)=O)C(=O)NC(C)(C)C(=O)N[C@@H](CCCN)C(=O)N[C@@H](Cc1ccccc1)C(=O)N[C@H](C(=O)N[C@@H](CCCCNC(=O)COCCOCCNC(=O)COCCOCCNC(=O)CC[C@H](NC(=O)CCCCCCCCCCCCC(=O)O)C(=O)O)C(=O)N[C@@](C)(Cc1ccc(O)cc1)C(=O)N[C@@H](CC(C)C)C(=O)N[C@H](C(=O)N[C@@H](CCCCNC(=O)COCCOCCNC(=O)COCCOCCNC(=O)CC[C@H](NC(=O)CCCCCCCCCCCCC(=O)O)C(=O)O)C(=O)NCC(=O)NCC(=O)N1CCC[C@H]1C(=O)N[C@@H](CO)C(=O)N[C@@H](CO)C(=O)NCC(=O)N[C@@H](C)C(=O)N1CCC[C@H]1C(=O)N1CCC[C@H]1C(=O)N1CCC[C@H]1C(=O)N[C@@H](CO)C(N)=O)[C@@H](C)CC)[C@@H](C)CC [Example 317]
- EC50 (hGCGR; [1]): > 9950 nM
- EC50 (hGCGR; [4]): > 9950 nM
- EC50 (hGIPR; [2]): 2.03 nM
- Emax (hGIPR; [3]): 84.4%
- Emax (hGIPR; HEK293, cAMP, 37° C., 0.1% bovine casein, percent of maximal response to GIP(1-42)NH2, arithmetic mean, read-out: hGIPR Emax, % ± SEM): 112%
- EC50 (hGIPR; [5]): 0.0587 nM
- Emax (hGLP-1R; HEK293, 0.1% bovine casein and 1.0% human serum albumin, 37° C., read-out: hGLP-1R Emax, % ± SEM): 98.1%
- EC50 (hGLP-1R; [6]): 1.34 nM

SMILES: CCCCCCCCCCCC(=O)N[C@@H](CCC(=O)NCCOCCOCC(=O)NCCOCCOCC(=O)NCCCC[C@H](NC(=O)[C@H](CCCN)NC(=O)[C@H](CC(=O)O)NC(=O)[C@H](CC(C)C)NC(=O)[C@](C)(CC(C)C)NC(=O)[C@@H](NC(=O)C(C)(C)NC(=O)[C@H](Cc1ccncc1)NC(=O)[C@H](CC(=O)O)NC(=O)[C@H](CO)NC(=O)[C@@H](NC(=O)[C@](C)(Cc1ccccc1F)NC(=O)[C@@H](NC(=O)CNC(=O)[C@H](CCC(=O)O)NC(=O)C(C)(C)NC(=O)[C@@H](N)Cc1ccc(O)cc1)[C@@H](C)O)[C@@H](C)O)[C@@H](C)CC)C(=O)N[C@@H](C)C(=O)N[C@@H](CCC(N)=O)C(=O)NC(C)(C)C(=O)N[C@@H](CCCCNC(=O)COCCOCCNC(=O)COCCOCCNC(=O)CC[C@H](NC(=O)CCCCCCCCCCC)C(=O)O)C(=O)N[C@@H](Cc1ccccc1)C(=O)N[C@H](C(=O)N[C@H](CCC(=O)O)C(=O)N[C@@](C)(Cc1ccc(O)cc1)C(=O)N[C@@H](CC(C)C)C(=O)N[C@H](C(=O)N[C@@H](CCCN)C(=O)NCC(=O)NCC(=O)N1CCC[C@H]1C(=O)N[C@@H](CO)C(=O)N[C@@H](CO)C(=O)NCC(=O)N[C@@H](C)C(=O)N1CCC[C@H]1C(=O)N1CCC[C@H]1C(=O)N1CCC[C@H]1C(=O)N[C@@H](CO)C(N)=O)[C@@H](C)CC)[C@@H](C)CC)C(=O)O [Example 413]
- EC50 (hGCGR; [4]): > 9950 nM
- EC50 (hGCGR; cAMP, 37° C., 0.1% bovine casein and 1.0% human serum albumin, geometric mean (SEM, n), read-out: hGCGR EC50, nM (SEM, n)): > 9950 nM
- Emax (hGIPR; HEK293, cAMP, 37° C., 0.1% bovine casein and 1.0% human serum albumin, percent of maximal response to GIP(1-42)NH2, read-out: hGIPR Emax, % ± SEM): 91.8%
- EC50 (hGIPR; [5]): 0.0146 nM
- Emax (hGLP-1R; HEK293, cAMP, 37° C., 0.1% bovine casein, arithmetic mean, read-out: hGLP-1R Emax, % ± SEM): 96.9%
- EC50 (hGLP-1R; [6]): 0.234 nM
- EC50 (hGLP-1R; 37° C., 0.1% bovine casein and 1.0% human serum albumin, geometric mean (SEM, n), read-out: hGLP-1R EC50, nM (SEM, n)): 5.47 nM
